Results taken from the NIST ThermoML archive (doi:10.1021/acs.jced.5b00880).
± gives the expanded uncertainty stated by the source.

Conditions: Crystal; DTA

With O=C(O)CCCCC(=O)O [1,6-hexanedioic acid] the Normal melting temperature was 152.4 ± 1.1 °C.
